Measured values as given in article PMC5386672, “Structure-guided design of purine-based probes for selective Nek2 inhibition” (Oncotarget, 2016).

Tests used:
Nek2 = biological target: T1, Nek2 (Homo sapiens, UniProt P51955); experiment: Nek2 Caliper kinase inhibition assay; format: biochemical; settings: 30 μM ATP; for IC50: Caliper assay; for inhibition at 50 µM: @ 50 μM compound
T1 construct: purchased Invitrogen
T1 sequence (P51955 1-445): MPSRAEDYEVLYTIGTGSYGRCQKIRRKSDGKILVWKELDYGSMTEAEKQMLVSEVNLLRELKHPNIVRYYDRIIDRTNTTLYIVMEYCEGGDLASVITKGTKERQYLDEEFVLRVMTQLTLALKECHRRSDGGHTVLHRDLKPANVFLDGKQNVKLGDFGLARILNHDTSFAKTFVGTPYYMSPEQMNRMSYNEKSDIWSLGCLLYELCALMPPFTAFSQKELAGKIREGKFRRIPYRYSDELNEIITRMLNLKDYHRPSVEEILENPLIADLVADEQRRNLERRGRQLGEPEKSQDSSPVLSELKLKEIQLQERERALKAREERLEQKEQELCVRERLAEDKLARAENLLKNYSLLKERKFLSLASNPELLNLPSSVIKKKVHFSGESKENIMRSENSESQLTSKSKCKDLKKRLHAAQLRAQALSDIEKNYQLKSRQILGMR

CDK2 = CDK2 (Homo sapiens, UniProt P24941); experiment: CDK2 kinase inhibition assay; format: biochemical; settings: for IC50: 12.5 μM ATP

| SMILES | IC50 (Nek2) [µM] | IC50 (CDK2) [µM] | selectivity for CDK2 over Nek2 (CDK2; from IC50 values) [fold] | melting point | inhibition at 50 µM (Nek2) [%] |
| --- | --- | --- | --- | --- | --- |
| CCC(C)Oc1nc(Nc2cccc(CC(=O)NCCCN(C)C)c2)nc2[nH]cnc12 (racemic) [Compound 60, (±)-2-[3-(6-sec-Butoxy-9H-purin-2-ylamino)phenyl]-N-(3-dimethylaminopropyl)acetamide] | 4.9 | 0.41 | 10 | 97 to 98 °C |  |
| c1ccc(Nc2nc(OCC3CCCCC3)c3nc[nH]c3n2)cc1 [2-aminophenyl-6-(cyclohexylmethoxy)-9H-purine] | 22 |  |  |  |  |
| NS(=O)(=O)c1ccc(Nc2nc(OCC3CCCCC3)c3nc[nH]c3n2)cc1 [Compound 6] | 12 |  |  |  |  |
| CCOc1nc(Nc2cccc(CC(=O)NCCCN(C)C)c2)nc2[nH]cnc12 [Compound 7] | 0.89 | 5.6 |  |  |  |
| CNC(=O)c1cccc(Nc2nc(OCC3CCCCC3)c3nc[nH]c3n2)c1 [Compound 10, 3-(6-Cyclohexylmethoxy-9H-purin-2-ylamino)-N-methylbenzamide] | 15 | 0.83 |  | 252 to 254 °C |  |
| CN(C)C(=S)c1cccc(Nc2nc(OCC3CCCCC3)c3nc[nH]c3n2)c1 [Compound 12, 3-(6-Cyclohexylmethoxy-9H-purin-2-ylamino)-N,N-dimethylthiobenzamide] | 5.2 | 5.7 |  | 231 to 232 °C (dec.) |  |
| NC(=S)c1cccc(Nc2nc(OCC3CCCCC3)c3nc[nH]c3n2)c1 [Compound 13, 3-(6-Cyclohexylmethoxy-9H-purin-2-ylamino)thiobenzamide] |  | 0.33 |  | 148 to 149 °C (dec.) | 46 |
| CN(C)S(=O)(=O)c1cccc(Nc2nc(OCC3CCCCC3)c3nc[nH]c3n2)c1 [Compound 14, 3-(6-Cyclohexylmethoxy-9H-purin-2-ylamino)-N,N-dimethylbenzenesulfonamide] |  | 3.5 |  | 143 to 145 °C | 40 |
| O=C(NCCN1CCCCC1)Nc1ccc(Nc2nc(OCC3CCCCC3)c3nc[nH]c3n2)cc1 [Compound 17, 1-(4-(6-(Cyclohexylmethoxy)-9H-purin-2-ylamino)phenyl)-3-(2-(piperidin-1-yl)ethyl)urea] | 1.1 | 0.86 |  |  |  |
| CC(=O)Nc1cccc(Nc2nc(OCC3CCCCC3)c3nc[nH]c3n2)c1 [Compound 27, N-(3-(6-(Cyclohexylmethoxy)-9H-purin-2-ylamino)phenyl)acetamide] | 8.3 | 0.88 |  |  |  |
| CC(C)(C)C(=O)Nc1ccc(Nc2nc(OCC3CCCCC3)c3nc[nH]c3n2)cc1 [Compound 28, N-(4-(6-(Cyclohexylmethoxy)-9H-purin-2-ylamino)phenyl)pivalamide] | 24 | 9.7 |  |  |  |
| O=C(Nc1ccc(Nc2nc(OCC3CCCCC3)c3nc[nH]c3n2)cc1)c1ccccc1 [Compound 29, N-(4-(6-(Cyclohexylmethoxy)-9H-purin-2-ylamino)phenyl)benzamide] |  | 2.9 |  |  | 36 |
| CC(C)CCNC(=O)Cc1cccc(Nc2nc(OCC3CCCCC3)c3nc[nH]c3n2)c1 [Compound 44, 2-[3-(6-Cyclohexylmethoxy-9H-purin-2-ylamino)phenyl]-N-(3-methylbutyl)acetamide] |  | 3.7 |  |  | 29 |
| CN(C)S(=O)(=O)Cc1cccc(Nc2nc(OCC3CCCCC3)c3nc[nH]c3n2)c1 [Compound 48, [3-(6-Cyclohexylmethoxy-9H-purin-2-ylamino)-phenyl]-N,N-dimethylmethanesulfonamide] | 0.83 | 0.77 |  |  |  |
| O=S(=O)(Cc1cccc(Nc2nc(OCC3CCCCC3)c3nc[nH]c3n2)c1)N1CCCCC1 [Compound 49, 1-(3-(6-Cyclohexylmethoxy-9H-purin-2-ylamino)phenylmethanesulfonyl)piperidine] |  | 1.6 |  |  | 53 |
| CCOc1nc(Nc2cccc(CC(=O)NCCCN(C)C)c2)nc2[nH]cnc12 [Compound 59, N-(3-Dimethylaminopropyl)-2-[3-(6-ethoxy-9H-purin-2-ylamino)phenyl]acetamide] |  |  |  | 178 to 179 °C |  |
